Tests used:
Format in all cases: functional
[1] = system: Escherichia coli; test: Antimicrobial activity against CTX-M ESBL producing Escherichia coli isolated from ICU patient urine assessed as resistant isolates by broth microdilution method
[2] = system: Pseudomonas aeruginosa; test: Antimicrobial activity against carbapenem-resistant Pseudomonas aeruginosa assessed as resistant isolates by broth microdilution method
[3] = system: Staphylococcus aureus; test: Antimicrobial activity against methicillin-susceptible Staphylococcus aureus isolated from ICU patient wound assessed as resistant isolates by broth microdilution method
[4] = system: Escherichia coli; test: Antimicrobial activity against CTX-M ESBL producing Escherichia coli isolated from ICU patient wound assessed as resistant isolates by broth microdilution method
[5] = system: Staphylococcus aureus; test: Antimicrobial activity against methicillin-susceptible Staphylococcus aureus isolated from ICU patient respiratory tract assessed as resistant isolates by broth microdilution method
[6] = system: Staphylococcus aureus; test: Antimicrobial activity against methicillin-susceptible Staphylococcus aureus isolated from ICU patient blood assessed as resistant isolates by broth microdilution method
[7] = system: Escherichia coli; test: Antimicrobial activity against CTX-M ESBL producing Escherichia coli isolated from ICU patient blood assessed as resistant isolates by broth microdilution method
[8] = system: Staphylococcus aureus; test: Antimicrobial activity against methicillin-susceptible Staphylococcus aureus assessed as resistant isolates by broth microdilution method
[9] = system: Enterobacter cloacae; test: Antimicrobial activity against carbapenem-resistant Enterobacter cloacae assessed as resistant isolates by broth microdilution method
[10] = system: Escherichia coli; test: Antimicrobial activity against CTX-M ESBL producing Escherichia coli isolated from ICU patient respiratory tract assessed as resistant isolates by broth microdilution method
[11] = system: Enterobacter cloacae; test: Antimicrobial activity against carbapenem-resistant Enterobacter cloacae isolated from ICU patient wound assessed as resistant isolates by broth microdilution method
[12] = system: Pseudomonas aeruginosa; test: Antimicrobial activity against carbapenem-resistant Pseudomonas aeruginosa isolated from ICU patient urine assessed as resistant isolates by broth microdilution method
[13] = system: Staphylococcus aureus; test: Antimicrobial activity against methicillin-resistant Staphylococcus aureus isolated from ICU patient wound assessed as resistant isolates by broth microdilution method
[14] = system: Pseudomonas aeruginosa; test: Antimicrobial activity against carbapenem-resistant Pseudomonas aeruginosa isolated from ICU patient respiratory tract assessed as resistant isolates by broth microdilution method
[15] = system: Staphylococcus aureus; test: Antimicrobial activity against methicillin-resistant Staphylococcus aureus isolated from ICU patient urine assessed as resistant isolates by broth microdilution method
[16] = system: Enterococcus sp.; test: Antimicrobial activity against vancomycin-resistant Enterococcus sp. assessed as resistant isolates by broth microdilution method
[17] = system: Escherichia coli; test: Antimicrobial activity against CTX-M ESBL producing Escherichia coli assessed as resistant isolates by broth microdilution method
[18] = system: Pseudomonas aeruginosa; test: Antimicrobial activity against carbapenem-resistant Pseudomonas aeruginosa isolated from ICU patient wound assessed as resistant isolates by broth microdilution method
[19] = system: Staphylococcus aureus; test: Antimicrobial activity against methicillin-resistant Staphylococcus aureus isolated from ICU patient respiratory tract assessed as resistant isolates by broth microdilution method
[20] = system: Enterococcus sp.; test: Antimicrobial activity against vancomycin-resistant Enterococcus sp. isolated from ICU patient respiratory tract assessed as resistant isolates by broth microdilution method
[21] = system: Staphylococcus aureus; test: Antimicrobial activity against methicillin-resistant Staphylococcus aureus isolated from ICU patient blood assessed as resistant isolates by broth microdilution method
[22] = system: Enterobacter cloacae; test: Antimicrobial activity against carbapenem-resistant Enterobacter cloacae isolated from ICU patient urine assessed as resistant isolates by broth microdilution method
[23] = system: Staphylococcus aureus; test: Antimicrobial activity against methicillin-susceptible Staphylococcus aureus isolated from ICU patient urine assessed as resistant isolates by broth microdilution method
[24] = system: Enterococcus sp.; test: Antimicrobial activity against vancomycin-resistant Enterococcus sp. isolated from ICU patient blood assessed as resistant isolates by broth microdilution method
[25] = system: Pseudomonas aeruginosa; test: Antimicrobial activity against carbapenem-resistant Pseudomonas aeruginosa isolated from ICU patient blood assessed as resistant isolates by broth microdilution method
[26] = system: Enterococcus sp.; test: Antimicrobial activity against vancomycin-resistant Enterococcus sp. isolated from ICU patient wound assessed as resistant isolates by broth microdilution method
[27] = system: Enterobacter cloacae; test: Antimicrobial activity against carbapenem-resistant Enterobacter cloacae isolated from ICU patient blood assessed as resistant isolates by broth microdilution method
[28] = system: Enterobacter cloacae; test: Antimicrobial activity against carbapenem-resistant Enterobacter cloacae isolated from ICU patient respiratory tract assessed as resistant isolates by broth microdilution method
[29] = system: Enterococcus sp.; test: Antimicrobial activity against vancomycin-resistant Enterococcus sp. isolated from ICU patient urine assessed as resistant isolates by broth microdilution method
[30] = system: Staphylococcus aureus; test: Antimicrobial activity against methicillin-resistant Staphylococcus aureus assessed as resistant isolates by broth microdilution method
[31] = system: Klebsiella pneumoniae; test: Antimicrobial activity against ESBL producing Klebsiella pneumoniae isolated from ICU patient blood assessed as resistant isolates by broth microdilution method
[32] = system: Klebsiella pneumoniae; test: Antimicrobial activity against ESBL producing Klebsiella pneumoniae isolated from ICU patient wound assessed as resistant isolates by broth microdilution method
[33] = system: Klebsiella pneumoniae; test: Antimicrobial activity against ESBL producing Klebsiella pneumoniae isolated from ICU patient respiratory tract assessed as resistant isolates by broth microdilution method
[34] = system: Klebsiella pneumoniae; test: Antimicrobial activity against ESBL producing Klebsiella pneumoniae assessed as resistant isolates by broth microdilution method
[35] = system: Klebsiella pneumoniae; test: Antimicrobial activity against ESBL producing Klebsiella pneumoniae isolated from ICU patient urine assessed as resistant isolates by broth microdilution method
[36] = system: Staphylococcus epidermidis; test: Antimicrobial activity against methicillin-resistant Staphylococcus epidermidis isolated from ICU patient urine assessed as resistant isolates by broth microdilution method
[37] = system: Streptococcus pneumoniae; test: Antimicrobial activity against penicillin-resistant Streptococcus pneumoniae assessed as resistant isolates by broth microdilution method
[38] = system: Staphylococcus epidermidis; test: Antimicrobial activity against methicillin-resistant Staphylococcus epidermidis isolated from ICU patient blood assessed as resistant isolates by broth microdilution method
[39] = system: Streptococcus pneumoniae; test: Antimicrobial activity against penicillin-resistant Streptococcus pneumoniae isolated from ICU patient blood assessed as resistant isolates by broth microdilution method
[40] = system: Streptococcus pneumoniae; test: Antimicrobial activity against penicillin-resistant Streptococcus pneumoniae isolated from ICU patient respiratory tract assessed as resistant isolates by broth microdilution method
[41] = system: Staphylococcus epidermidis; test: Antimicrobial activity against methicillin-susceptible Staphylococcus epidermidis isolated from ICU patient respiratory tract assessed as resistant isolates by broth microdilution method
[42] = system: Staphylococcus epidermidis; test: Antimicrobial activity against methicillin-susceptible Staphylococcus epidermidis assessed as resistant isolates by broth microdilution method
[43] = system: Staphylococcus epidermidis; test: Antimicrobial activity against methicillin-susceptible Staphylococcus epidermidis isolated from ICU patient urine assessed as resistant isolates by broth microdilution method
[44] = system: Streptococcus pneumoniae; test: Antimicrobial activity against penicillin-resistant Streptococcus pneumoniae isolated from ICU patient wound assessed as resistant isolates by broth microdilution method
[45] = system: Staphylococcus epidermidis; test: Antimicrobial activity against methicillin-resistant Staphylococcus epidermidis isolated from ICU patient wound assessed as resistant isolates by broth microdilution method
[46] = system: Staphylococcus epidermidis; test: Antimicrobial activity against methicillin-susceptible Staphylococcus epidermidis isolated from ICU patient blood assessed as resistant isolates by broth microdilution method
[47] = system: Staphylococcus epidermidis; test: Antimicrobial activity against methicillin-susceptible Staphylococcus epidermidis isolated from ICU patient wound assessed as resistant isolates by broth microdilution method
[48] = system: Staphylococcus epidermidis; test: Antimicrobial activity against methicillin-resistant Staphylococcus epidermidis assessed as resistant isolates by broth microdilution method

CN(C)c1cc(NC(=O)CNC(C)(C)C)c(O)c2c1C[C@H]1C[C@H]3[C@H](N(C)C)C(O)=C(C(N)=O)C(=O)[C@@]3(O)C(O)=C1C2=O [TIGECYCLINE]
Activity [1]: 0% | Activity [2]: 0.4% | Activity [3]: 0% | Activity [4]: 0% | Activity [5]: 0% | Activity [6]: 0% | Activity [7]: 0% | Activity [8]: 0% | Activity [9]: 0.6% | Activity [10]: 0% | Activity [11]: 0% | Activity [12]: 2% | Activity [13]: 0% | Activity [14]: 0% | Activity [15]: 0% | Activity [16]: 0% | Activity [17]: 0% | Activity [18]: 3.9% | Activity [19]: 0% | Activity [20]: 0% | Activity [21]: 0% | Activity [22]: 6.3% | Activity [23]: 0% | Activity [24]: 0% | Activity [25]: 0% | Activity [26]: 0% | Activity [27]: 0% | Activity [28]: 0% | Activity [29]: 0% | Activity [30]: 0%

GENTAMICIN
Activity [1]: 1.1% | Activity [31]: 9.1% | Activity [2]: 0% | Activity [4]: 6.9% | Activity [7]: 6.9% | Activity [32]: 18.9% | Activity [9]: 3% | Activity [33]: 14.2% | Activity [10]: 3.3% | Activity [11]: 0% | Activity [12]: 0% | Activity [14]: 0% | Activity [17]: 3% | Activity [18]: 0% | Activity [34]: 15.2% | Activity [22]: 6.3% | Activity [25]: 0% | Activity [35]: 22.2% | Activity [27]: 8.3% | Activity [28]: 1.9%

NCC[C@H](O)C(=O)N[C@@H]1C[C@H](N)[C@@H](O[C@H]2O[C@H](CN)[C@@H](O)[C@H](O)[C@H]2O)[C@H](O)[C@H]1O[C@H]1O[C@H](CO)[C@@H](O)[C@H](N)[C@H]1O [AMIKACIN]
Activity [1]: 0% | Activity [31]: 0% | Activity [2]: 0% | Activity [4]: 0% | Activity [7]: 0% | Activity [32]: 1.9% | Activity [9]: 0% | Activity [33]: 2.4% | Activity [10]: 0% | Activity [11]: 0% | Activity [12]: 0% | Activity [14]: 0% | Activity [17]: 0% | Activity [18]: 0% | Activity [34]: 2.6% | Activity [22]: 0% | Activity [25]: 0% | Activity [35]: 6.7% | Activity [27]: 0% | Activity [28]: 0%

CN[C@H](CC(C)C)C(=O)N[C@H]1C(=O)N[C@@H](CC(N)=O)C(=O)N[C@H]2C(=O)N[C@H]3C(=O)N[C@H](C(=O)N[C@H](C(=O)O)c4cc(O)cc(O)c4-c4cc3ccc4O)[C@H](O)c3ccc(c(Cl)c3)Oc3cc2cc(c3O[C@@H]2O[C@H](CO)[C@@H](O)[C@H](O)[C@H]2O[C@H]2C[C@](C)(N)[C@H](O)[C@H](C)O2)Oc2ccc(cc2Cl)[C@H]1O [VANCOMYCIN]
Activity [36]: 0% | Activity [37]: 0% | Activity [3]: 0% | Activity [38]: 0% | Activity [5]: 0% | Activity [6]: 0% | Activity [39]: 0% | Activity [40]: 0% | Activity [8]: 0% | Activity [41]: 0% | Activity [13]: 0% | Activity [15]: 0% | Activity [16]: 6.8% | Activity [42]: 0% | Activity [19]: 0% | Activity [43]: 0% | Activity [20]: 3.3% | Activity [21]: 0% | Activity [23]: 0% | Activity [24]: 5.4% | Activity [44]: 0% | Activity [45]: 0% | Activity [46]: 0% | Activity [47]: 0% | Activity [26]: 12.5% | Activity [48]: 0% | Activity [29]: 4% | Activity [30]: 0%

— ChEMBL document CHEMBL1275409, “Antimicrobial-resistant pathogens in intensive care units in Canada: results of the Canadian National Intensive Care Unit (CAN-ICU) study, 2005-2006” (2008)
